# Results from paper PMC5441580, “GPR40 partial agonist MK-2305 lower fasting glucose in the Goto Kakizaki rat via suppression of endogenous glucose production” (PLoS ONE, 2017).
# Where “and” joins values, the source holds several entries; their conditions need not be identical. Equal values may be shown once.
# How the values were obtained:
# GK rats [1] = assay: 13C-labeled OGTT, 13C metabolites in liver and skeletal muscle; type: in vivo, rat; settings: for 13C Labeled Metabolite, Ala C3 / 13C Labeled Metabolite, G6P C1 / 13C Labeled Metabolite, Glyc C1 / 13C Labeled Metabolite, Lac C3: [1-13C] glucose, acute treatment, individual animals
# Method: GK rat OGTT procedures were followed as above. Animals were treated PO at 5 ml/kg with MK-2305 at 10 mg/kg or vehicle at time = -60 min. At time = 0, animals were challenged PO at 10 ml/kg dose volume with [1-^13C] glucose prepared in distilled water at 1 g/kg (Sigma-Aldrich). Blood glucose was measured pre-treatment and at t = 0, 20, 40, 60, 120 minutes post challenge. Following the blood glucose measurement at time = 120 min, animals were anesthetized with Isoflurane (Isothesia, Henry Schein, Dublin, OH) and samples of liver and skeletal muscle were collected. Tissue samples were processed using a methanol/water based extraction procedure as follows. Frozen tissue was weighed and added to tubes containing 80% methanol at a ratio of 100 mg tissue per mL 80% methanol. The samples were homogenized at 4°C using a Polytron homogenizer equipped with a 12 mm stainless steel head. Samples were then centrifuged at 25,000 rcf for 10 min at 4°C, the supernatant collected, and the pellet extracted again using an equivalent volume of 80% methanol. The supernatants from both extractions were pooled and the methanol evaporated under nitrogen. The samples were then reconstituted in 180 μl 0.1M sodium phosphate in D2O (pH 7.4) for NMR analysis. ^13C NMR of tissue extracts was performed on a 600 MHz Bruker NMR spectrometer (David H. Murdock Research Institute) using the following parameters: 45° pulse, D1 = 0.2 sec, NS = 3200 averages, ^1H broadband decoupling (WALTZ-16), acquisition time ~45 min. […] These NMR signals were integrated and converted to absolute units (μmoles) using ^13C NMR spectra from standard solutions of each metabolite of known concentration acquired under identical conditions. Glycogen is a primary site of glucose disposal in both liver and muscle, however glycogen was not preserved in our tissue extraction protocol. To quantify tissue ^13C-glycogen, a separate piece of tissue from each sample was analyzed. Briefly, tissue samples were saponified in hot KOH, and this was followed by glycogen precipitation with NaSO4 and ethanol, and then degradation with amyloglucosidase. The resulting glycogen-derived glucose solution was analyzed for total glucose using a glucose oxidase / horseradish peroxidase assay kit and fluorescence-based product detection according to the manufacturers’ instructions (BioVision Glycogen Assay Kit, Milpitas, CA).
# rat GPR120 (FFAR4) = molecular target: T1, rat GPR120 (FFAR4) (Rattus norvegicus, UniProt Q2AC31); assay: IP1 functional assay, HEK293 cells stably expressing rat GPR120; type: cell-based; settings: individual experiments (raw data of Table 1)
# T1 construct: expressed in transfected cells
# T1 sequence (Q2AC31 1-361): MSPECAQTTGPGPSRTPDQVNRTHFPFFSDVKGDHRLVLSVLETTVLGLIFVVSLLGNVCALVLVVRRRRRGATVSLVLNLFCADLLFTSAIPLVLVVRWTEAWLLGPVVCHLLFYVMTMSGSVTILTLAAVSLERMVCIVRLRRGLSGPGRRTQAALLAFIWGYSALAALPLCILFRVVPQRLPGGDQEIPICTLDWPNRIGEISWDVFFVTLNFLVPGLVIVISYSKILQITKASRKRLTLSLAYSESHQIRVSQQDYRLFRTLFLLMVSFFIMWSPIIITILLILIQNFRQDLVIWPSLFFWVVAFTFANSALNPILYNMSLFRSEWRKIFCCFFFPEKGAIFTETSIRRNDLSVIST
# Method: (§1) CHO Jump-IN cells stably expressing rat GPR40 or HEK293 Jump-IN cells stably expressing rat GPR120 were cultured in DMEM media supplemented with 10% dialyzed FBS, non-essential amino acids, penicillin/streptomycin, 10 μg/ml Blasticidin S HCL and 200 or 100 μg/ml Hygromycin B, respectively (Life Technologies). Cell stocks were maintained and grown in a sub-confluent state using standard cell culture procedures. The day before the experiment, the cells were harvested with non-enzymatic cell dissociation buffer and re-suspended in DMEM supplemented as described above at 0.15 million cells per ml. […] The seeded plates were incubated overnight at 37°C in a humidified environment.
# On the day of the experiment, the growth media was removed from the assay plate by centrifugation using a BlueCatBio BlueWasher, protocol #21 “Light Dry” and 10 μl of IP1 stimulation buffer (prepared according to the Cisbio IP-one Tb HTRF kit) is added to each well. Test compounds were dissolved and serially diluted in DMSO as 200X the final assay concentration and 50 nl of the compound dilution was acoustically added to each well of the assay plates. The plates were then incubated for 60 minutes at room temperature and 10 μl of detection buffer (prepared according to the IP-one Tb HTRF kit) is added to each well of the assay plate. […] Maximal % activation and EC50 are then determined for each test compound.
# rat GPR40 (FFAR1) = molecular target: T2, rat GPR40 (FFAR1) (Rattus norvegicus, UniProt Q8K3T4); assay: IP1 functional assay, CHO cells stably expressing rat GPR40; type: cell-based; settings: for Receptor Activation (%): representative curve Fig 1B
# T2 construct: expressed in transfected cells
# T2 sequence (Q8K3T4 whole entry): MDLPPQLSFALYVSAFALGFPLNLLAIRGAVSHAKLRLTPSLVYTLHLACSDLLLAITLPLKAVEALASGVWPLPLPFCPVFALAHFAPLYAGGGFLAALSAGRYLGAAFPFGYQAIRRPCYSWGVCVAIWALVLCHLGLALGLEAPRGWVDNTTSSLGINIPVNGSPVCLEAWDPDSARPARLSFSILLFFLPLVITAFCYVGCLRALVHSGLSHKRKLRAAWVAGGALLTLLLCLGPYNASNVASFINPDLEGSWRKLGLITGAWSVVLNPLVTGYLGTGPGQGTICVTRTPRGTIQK
# Method: as §1
# On the day of the experiment, the growth media was removed from the assay plate by centrifugation using a BlueCatBio BlueWasher, protocol #21 “Light Dry” and 10 μl of IP1 stimulation buffer (prepared according to the Cisbio IP-one Tb HTRF kit) is added to each well. Test compounds were dissolved and serially diluted in DMSO as 200X the final assay concentration and 50 nl of the compound dilution was acoustically added to each well of the assay plates. The plates were then incubated for 60 minutes at room temperature and 10 μl of detection buffer (prepared according to the IP-one Tb HTRF kit) is added to each well of the assay plate. The plates were then incubated for one additional hour at room temperature. […] For each assay, a standard curve plate in which IP1 is titrated is also included. […] The % activation is then plotted versus the concentration of test compound and the dose response curve fitted to a standard 4-paramater non-linear regression model using a custom in-house developed software package. Maximal % activation and EC50 are then determined for each test compound.
# GK rats [2] = assay: GK rat chronic efficacy, compound in feed for 20 days; type: in vivo; settings: Day 7, ~6 hrs after food removal; 10mpk; chronic study; individual animals; 10 mg/kg
# [3] = 10 mg/kg PO, [1-13C] glucose OGTT, GK rats
structure (smiles),measurement,setting,value
O=C1NC(=O)C(C2CCOc3cc(Oc4ccc(C(F)(F)F)cc4Cl)ccc32)S1 (stereo not drawn) [MK-2305],"effect on disposal of 13C-glucose into 13C-G6P, 13C-glycogen, 13C-lactate and 13C-alanine in liver",GK rats [1]; [3],significant decreases
same,effect on disposal of 13C-glucose into metabolites in muscle,GK rats [1]; [3],no significant effects
same,"13C Labeled Metabolite, Ala C3",GK rats [1],0.07795 umoles/g liver and 0.1076 umoles/g liver and 0.03915 umoles/g liver and 0.01144 umoles/g liver and 0.01402 umoles/g liver and 0.02433 umoles/g liver and 0.05001 umoles/g liver and 0.007673 umoles/g liver
same,"13C Labeled Metabolite, G6P C1",GK rats [1],0.02684 umoles/g liver and 0.01164 umoles/g liver and 0.007287 umoles/g liver and 0.01533 umoles/g liver and 0.00988 umoles/g liver and 0.01421 umoles/g liver and 0.01349 umoles/g liver and 0.0107 umoles/g liver
same,"13C Labeled Metabolite, Glyc C1",GK rats [1],1.292 umoles/g liver and 0.3555 umoles/g liver and 0.1582 umoles/g liver and 0.4672 umoles/g liver and 0.1107 umoles/g liver and 0.1399 umoles/g liver and 0.3766 umoles/g liver and 0.2884 umoles/g liver
same,"13C Labeled Metabolite, Lac C3",GK rats [1],0.03897 umoles/g liver and 0.06288 umoles/g liver and 0.02257 umoles/g liver and 0.01974 umoles/g liver and 0.01299 umoles/g liver and 0.02143 umoles/g liver and 0.0406 umoles/g liver and 0.007673 umoles/g liver
same,"13C Labeled Metabolite, Ala C3",GK rats [1]; skeletal muscle,0.1279 umoles/g muscle and 0.07989 umoles/g muscle and 0.1157 umoles/g muscle and 0.07123 umoles/g muscle
same,"13C Labeled Metabolite, G6P C1",GK rats [1]; skeletal muscle,0.05019 umoles/g muscle and 0.01903 umoles/g muscle and 0.04767 umoles/g muscle and 0.01045 umoles/g muscle and 0.004493 umoles/g muscle and 0.01768 umoles/g muscle and 0.003514 umoles/g muscle
same,"13C Labeled Metabolite, Glyc C1",GK rats [1]; skeletal muscle,0.2857 umoles/g muscle and 0.133 umoles/g muscle and 1.635 umoles/g muscle and 0.328 umoles/g muscle and 0.06707 umoles/g muscle and 0.1828 umoles/g muscle and 0.4005 umoles/g muscle
same,"13C Labeled Metabolite, Lac C3",GK rats [1]; skeletal muscle,0.2756 umoles/g muscle and 0.03448 umoles/g muscle and 0.06757 umoles/g muscle and 0.07739 umoles/g muscle and 0.08426 umoles/g muscle
same,% Activation,rat GPR120 (FFAR4),-22% and -18% and -16% and 8%
same,EC50,rat GPR120 (FFAR4),> 10000 nM
same,"selectivity for activation of rat GPR40 vs. GPR120, GPR41, GPR43, PPARα, PPARδ, PPARγ",rat GPR40 (FFAR1),highly selective
same,Receptor Activation (%),rat GPR40 (FFAR1); Concentration 2.00E-06 M,154%
same,Receptor Activation (%),rat GPR40 (FFAR1); Concentration 2.00E-07 M,169%
same,Receptor Activation (%),rat GPR40 (FFAR1); Concentration 2.00E-08 M,136%
same,Receptor Activation (%),rat GPR40 (FFAR1); Concentration 2.00E-09 M,35%
same,Receptor Activation (%),rat GPR40 (FFAR1); Concentration 2.00E-10 M,5.69%
same,Receptor Activation (%),rat GPR40 (FFAR1); Concentration 6.00E-07 M,163%
same,Receptor Activation (%),rat GPR40 (FFAR1); Concentration 6.00E-08 M,133%
same,Receptor Activation (%),rat GPR40 (FFAR1); Concentration 6.00E-09 M,74%
same,Receptor Activation (%),rat GPR40 (FFAR1); Concentration 6.00E-10 M,16%
same,Receptor Activation (%),rat GPR40 (FFAR1); Concentration 6.00E-11 M,-6%
same,EC50,"rat GPR40 (FFAR1); IP1 accumulation, CHO cells expressing rat GPR40, mean ± SD, N = 29",6 ± 2.9 nM
same,% Activation,rat GPR40 (FFAR1); individual experiments (raw data of Table 1),118% and 159% and 181% and 151% and 130% and 184% and 179% and 195% and 135% and 146% and 161% and 144% and 191% and 182% and 204% and 258% and 168% and 171% and 187% and 162% and 170% and 165% and 199% and 155% and 137% and 160% and 91%
same,% Activation,"rat GPR40 (FFAR1); maximal activation, percentage of the control response of an in-house partial agonist, mean ± SD",166% and 166 ± 31^1%
same,Fasted blood glucose,GK rats [2],134 mg/dl (2×) and 126 mg/dl and 92 mg/dl and 108 mg/dl and 125 mg/dl and 107 mg/dl (2×) and 150 mg/dl
